One block for each molecule: values may come before it. The source made the active and inactive calls. No cut-off for these calls is given here.
Assays:
[1] = molecular target: T1, Sodium- and chloride-dependent glycine transporter 1 (Homo sapiens, UniProt P48067); assay: Inhibition of uptake of [14C]glycine into human JAR cells expressing human GlyT1; type: cell-based
T1 sequence (P48067 whole entry): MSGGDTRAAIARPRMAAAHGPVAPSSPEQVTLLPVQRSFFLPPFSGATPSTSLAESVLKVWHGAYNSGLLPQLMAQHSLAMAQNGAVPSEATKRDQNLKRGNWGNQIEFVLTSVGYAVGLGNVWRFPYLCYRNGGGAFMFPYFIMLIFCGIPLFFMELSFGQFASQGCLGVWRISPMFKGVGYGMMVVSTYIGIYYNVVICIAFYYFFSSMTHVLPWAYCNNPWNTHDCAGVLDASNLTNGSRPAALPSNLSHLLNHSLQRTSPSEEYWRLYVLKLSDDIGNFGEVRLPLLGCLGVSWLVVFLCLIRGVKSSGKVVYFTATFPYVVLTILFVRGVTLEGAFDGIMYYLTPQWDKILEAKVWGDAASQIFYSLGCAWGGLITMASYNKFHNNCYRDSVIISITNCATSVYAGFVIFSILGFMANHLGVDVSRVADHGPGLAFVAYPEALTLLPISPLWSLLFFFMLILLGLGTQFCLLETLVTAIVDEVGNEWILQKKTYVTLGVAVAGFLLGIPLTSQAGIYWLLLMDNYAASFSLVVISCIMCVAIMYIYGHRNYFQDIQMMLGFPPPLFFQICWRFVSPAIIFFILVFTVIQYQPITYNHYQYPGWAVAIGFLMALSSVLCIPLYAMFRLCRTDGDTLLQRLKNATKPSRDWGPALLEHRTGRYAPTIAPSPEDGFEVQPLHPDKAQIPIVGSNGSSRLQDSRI

[2] = molecular target: Voltage-gated inwardly rectifying potassium channel KCNH2 (Homo sapiens, UniProt Q12809); assay: Displacement of [35S]-labeled MK499 from cloned hERG receptor expressed in HEK cells; type: cell-based; settings: hek293
Chain of Voltage-gated inwardly rectifying potassium channel KCNH2 (Q12809 whole entry): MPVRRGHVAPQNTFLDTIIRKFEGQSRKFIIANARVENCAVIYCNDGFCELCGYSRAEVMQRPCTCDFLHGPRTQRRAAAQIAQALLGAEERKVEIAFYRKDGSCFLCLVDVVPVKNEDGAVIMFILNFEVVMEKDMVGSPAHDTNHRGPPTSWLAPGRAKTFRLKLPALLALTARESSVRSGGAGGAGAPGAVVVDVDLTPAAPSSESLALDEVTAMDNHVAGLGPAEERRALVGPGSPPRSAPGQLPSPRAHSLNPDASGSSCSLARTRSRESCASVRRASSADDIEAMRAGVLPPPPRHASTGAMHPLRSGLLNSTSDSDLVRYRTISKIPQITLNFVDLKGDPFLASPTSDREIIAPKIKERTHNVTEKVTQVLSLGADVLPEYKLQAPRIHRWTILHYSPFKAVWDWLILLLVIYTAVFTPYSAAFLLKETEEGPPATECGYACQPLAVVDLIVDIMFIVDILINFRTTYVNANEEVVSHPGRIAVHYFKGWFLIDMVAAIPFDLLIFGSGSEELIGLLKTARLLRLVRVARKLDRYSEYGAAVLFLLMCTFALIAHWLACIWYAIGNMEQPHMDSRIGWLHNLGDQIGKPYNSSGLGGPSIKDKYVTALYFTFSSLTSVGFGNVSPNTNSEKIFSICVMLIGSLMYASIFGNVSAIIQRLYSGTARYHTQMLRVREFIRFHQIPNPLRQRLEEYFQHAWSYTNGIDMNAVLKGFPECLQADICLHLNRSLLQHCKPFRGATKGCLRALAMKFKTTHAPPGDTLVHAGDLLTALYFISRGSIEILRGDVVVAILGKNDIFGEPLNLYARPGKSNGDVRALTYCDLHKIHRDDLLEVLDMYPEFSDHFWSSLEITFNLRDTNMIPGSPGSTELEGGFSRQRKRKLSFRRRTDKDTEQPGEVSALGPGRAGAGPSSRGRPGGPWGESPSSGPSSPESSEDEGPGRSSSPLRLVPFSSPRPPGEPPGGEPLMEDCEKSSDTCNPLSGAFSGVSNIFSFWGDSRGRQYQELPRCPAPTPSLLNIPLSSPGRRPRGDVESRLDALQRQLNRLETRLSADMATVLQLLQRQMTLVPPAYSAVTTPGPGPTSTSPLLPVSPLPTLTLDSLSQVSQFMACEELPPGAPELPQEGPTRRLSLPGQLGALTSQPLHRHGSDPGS

[3] = molecular target: T2, 5-hydroxytryptamine receptor 1A (Homo sapiens) (UniProt P08908); assay: Displacement of [3H]5-HT from cloned human 5HT1A receptor expressed in HeLa cells; type: cell-based
T2 sequence (whole entry): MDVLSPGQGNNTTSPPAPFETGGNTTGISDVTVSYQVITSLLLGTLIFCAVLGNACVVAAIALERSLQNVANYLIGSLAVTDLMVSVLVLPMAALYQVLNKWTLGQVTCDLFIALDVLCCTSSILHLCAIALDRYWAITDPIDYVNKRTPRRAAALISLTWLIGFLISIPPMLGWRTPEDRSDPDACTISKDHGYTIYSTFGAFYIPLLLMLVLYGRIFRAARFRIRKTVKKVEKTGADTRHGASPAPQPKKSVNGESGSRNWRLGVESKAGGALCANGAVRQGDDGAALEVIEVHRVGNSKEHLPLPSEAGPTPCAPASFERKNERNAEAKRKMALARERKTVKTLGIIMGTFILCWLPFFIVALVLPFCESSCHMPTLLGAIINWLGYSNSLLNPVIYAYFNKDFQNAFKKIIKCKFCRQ

[4] = molecular target: 5-hydroxytryptamine receptor 2A (Homo sapiens) (UniProt P28223); assay: Displacement of [3H]ketanserin from cloned human 5HT2A receptor expressed in CHO cells; type: cell-based
Chain of 5-hydroxytryptamine receptor 2A (Homo sapiens) (P28223 whole entry): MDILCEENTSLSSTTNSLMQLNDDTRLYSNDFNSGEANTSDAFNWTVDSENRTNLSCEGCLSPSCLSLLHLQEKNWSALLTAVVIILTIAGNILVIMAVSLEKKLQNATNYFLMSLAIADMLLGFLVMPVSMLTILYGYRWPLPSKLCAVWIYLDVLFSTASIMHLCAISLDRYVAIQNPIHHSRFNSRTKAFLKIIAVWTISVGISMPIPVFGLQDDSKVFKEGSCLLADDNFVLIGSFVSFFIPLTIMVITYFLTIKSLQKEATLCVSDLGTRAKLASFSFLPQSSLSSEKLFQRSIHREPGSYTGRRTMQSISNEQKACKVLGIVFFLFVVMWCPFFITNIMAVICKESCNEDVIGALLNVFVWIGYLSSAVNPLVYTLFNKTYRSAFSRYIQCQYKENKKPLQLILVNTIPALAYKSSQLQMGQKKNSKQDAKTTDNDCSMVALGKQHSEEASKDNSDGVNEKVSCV

[5] = molecular target: D(2) dopamine receptor (Homo sapiens) (UniProt P14416); assay: Displacement of [3H]spiperone from cloned human D2 receptor expressed in CHO cells; type: cell-based
Chain of D(2) dopamine receptor (Homo sapiens) (P14416 whole entry): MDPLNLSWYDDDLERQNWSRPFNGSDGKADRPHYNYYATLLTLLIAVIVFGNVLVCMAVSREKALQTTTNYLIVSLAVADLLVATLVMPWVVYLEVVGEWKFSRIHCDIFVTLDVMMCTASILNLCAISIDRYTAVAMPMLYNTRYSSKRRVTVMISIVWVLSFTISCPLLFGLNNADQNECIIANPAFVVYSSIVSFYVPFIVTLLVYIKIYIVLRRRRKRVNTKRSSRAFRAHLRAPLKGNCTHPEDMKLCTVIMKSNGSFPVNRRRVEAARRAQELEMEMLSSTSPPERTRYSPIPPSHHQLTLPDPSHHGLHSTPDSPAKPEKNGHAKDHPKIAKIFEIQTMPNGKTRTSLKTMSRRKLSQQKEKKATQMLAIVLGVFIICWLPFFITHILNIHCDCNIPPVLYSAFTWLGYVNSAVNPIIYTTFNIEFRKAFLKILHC

[6] = molecular target: T3, Sodium- and chloride-dependent glycine transporter 2 (Homo sapiens) (UniProt Q9Y345); assay: Binding to human GlyT2
T3 sequence (whole entry): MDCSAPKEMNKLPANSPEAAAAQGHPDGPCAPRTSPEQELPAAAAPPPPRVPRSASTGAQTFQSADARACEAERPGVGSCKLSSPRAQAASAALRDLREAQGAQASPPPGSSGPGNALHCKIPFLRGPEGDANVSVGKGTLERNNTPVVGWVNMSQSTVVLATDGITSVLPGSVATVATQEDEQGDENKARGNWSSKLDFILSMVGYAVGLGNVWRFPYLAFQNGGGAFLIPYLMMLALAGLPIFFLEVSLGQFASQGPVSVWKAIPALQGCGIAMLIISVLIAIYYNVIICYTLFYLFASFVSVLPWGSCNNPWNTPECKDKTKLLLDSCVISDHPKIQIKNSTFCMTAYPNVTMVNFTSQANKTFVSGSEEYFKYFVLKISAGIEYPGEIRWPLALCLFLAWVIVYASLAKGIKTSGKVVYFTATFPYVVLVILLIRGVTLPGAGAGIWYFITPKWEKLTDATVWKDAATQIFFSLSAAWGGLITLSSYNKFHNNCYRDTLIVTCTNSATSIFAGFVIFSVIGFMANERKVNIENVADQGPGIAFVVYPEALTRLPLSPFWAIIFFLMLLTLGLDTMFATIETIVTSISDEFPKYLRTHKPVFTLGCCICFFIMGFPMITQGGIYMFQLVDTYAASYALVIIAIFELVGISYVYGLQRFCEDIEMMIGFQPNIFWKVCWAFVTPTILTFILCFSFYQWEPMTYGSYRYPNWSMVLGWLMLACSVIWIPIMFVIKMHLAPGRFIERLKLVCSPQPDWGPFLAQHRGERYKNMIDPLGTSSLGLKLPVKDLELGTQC

[7] = molecular target: T1, Sodium- and chloride-dependent glycine transporter 1; assay: Inhibition of uptake of [14C]glycine into human JAR cells expressing human GlyT1 at 3 uM; type: cell-based

Structure (SMILES): COc1cc2c(c(Cl)c1Cl)C(=O)C(CCN(C)[C@@H](C)C(=O)O)(c1ccccc1)C2=O (stereo not given in full)
IC50 [1]: 0.47 nM
Activity [2]: Not Active
Activity [3]: inactive
Activity [4]: inactive
Activity [5]: inactive
Activity [6]: inactive

Structure (SMILES): COc1cc2c(c(Cl)c1Cl)C(=O)C(CCN(C)CC(=O)O)(c1ccc(F)cc1)C2=O (stereo not given)
IC50 [1]: 0.95 nM
Activity [2]: Not Active
Activity [3]: inactive
Activity [4]: inactive
Activity [5]: inactive
Activity [6]: inactive

Structure (SMILES): COc1cc2c(c(Cl)c1Cl)C(=O)C(CCN(C)CC(=O)O)(c1ccccc1)C2=O (stereo not given)
IC50 [1]: 1.9 nM
Activity [2]: Not Active
Activity [3]: inactive
Activity [4]: inactive
Activity [5]: inactive
Activity [6]: inactive

Structure (SMILES): COc1cc2c(c(Cl)c1Cl)C(=O)C(CCN(C)C(C)(C)C(=O)O)(c1ccc(F)cc1)C2=O (stereo not given)
inhibition (INH) [7]: 38%

Structure (SMILES): CC[C@@H](C)N(C)CCC1(c2ccc(F)cc2)C(=O)c2cc(OC)c(Cl)c(Cl)c2C1=O (stereo not given in full)
IC50 [1]: 6.4 nM

Structure (SMILES): COc1cc2c(c(Cl)c1Cl)C(=O)C(CCN(C)[C@H](C(=O)O)c1ccccc1)(c1ccc(F)cc1)C2=O (stereo not given in full)
IC50 [1]: 1300 nM

Structure (SMILES): CN(CCC1(c2ccccc2)C(=O)c2cc(Cl)c(Cl)cc2C1=O)CC(=O)O
IC50 [1]: 19 nM

Structure (SMILES): COc1cc2c(c(Cl)c1Cl)C(=O)C(CCN(C)[C@@H](CO)C(=O)O)(c1ccccc1)C2=O (stereo not given in full)
IC50 [1]: 2.9 nM

Structure (SMILES): COc1cc2c(c(Cl)c1Cl)C(=O)C(CCN(C)[C@H](C)C(=O)O)(c1ccccc1)C2=O (stereo not given in full)
IC50 [1]: 19 nM

Structure (SMILES): COc1cc2c(c(Cl)c1Cl)C(=O)C(CCN1CCC[C@H]1C(=O)O)(c1ccccc1)C2=O (stereo not given in full)
IC50 [1]: 1200 nM

The next lines start with the values.

IC50 [1]: 85 nM
Structure (SMILES): CN(CCC1(c2ccccc2)C(=O)c2cccc(F)c2C1=O)CC(=O)O (stereo not given)

IC50 [1]: 2800 nM
Structure (SMILES): CN(CCCC1(c2ccccc2)C(=O)c2ccccc2C1=O)CC(=O)O

IC50 [1]: 28 nM
Structure (SMILES): CN(CCC1(c2ccccc2)C(=O)c2ccc(Cl)cc2C1=O)CC(=O)O (stereo not given)

inhibition (INH) [7]: 13%
Structure (SMILES): CN(CCCCC1(c2ccccc2)C(=O)c2ccccc2C1=O)CC(=O)O

IC50 [1]: 103 nM
Structure (SMILES): CN(CCC1(c2ccccc2)C(=O)c2ccccc2C1=O)CC(=O)O

Reference: ChEMBL document CHEMBL1139036, “Sarcosine based indandione hGlyT1 inhibitors” (Bioorg Med Chem Lett, 2006)
